Laboratory results: patent US9597407B2, “Targeted antimicrobial moieties” (C3 Jian, Inc., priority 2009, dated 2017)
pIC50: −log10 of the molar value. Bridge positions count the residues as written; N and C are the ends. Square brackets hold non-standard residues; d marks the D form. Ends that are not written are not given here. Peptide text beside a SMILES is read from it. I, II: the chains in the order shown. Aoc = NCCCCCCCC(=O)O

Key:
[1] = tested on: S. mutans JM11 and non-cariogenic oral streptococci in mixed biofilms; assay: Selective photodynamic assay against multispecies biofilms; type: cell-based, Streptococcus mutans; settings: mixed biofilm, blue light, plus potassium gluconate
Experimental: To gauge C16-RB selectivity for S. mutans, similar assays were conducted against multispecies biofilms. Mixed biofilms were seeded by diluting (1:5000) a mixture of equal parts S. oralis, S. gordonii, S. mitis, S. sanguinis, S. salivarius, and S. mutans JM11 (made from overnight cultures) into TH with 1% sucrose, 1% glucose, and 1% mannose. Biofilms were incubated and treated as described above with the addition of vitamin C or potassium gluconate. After the addition of agent and 5 min incubation, biofilms were washed 1× with 1×PBS prior to light exposure. After PDT and biofilm disruption, survivors were plated on TH, and TH supplemented with 800 μg/mL spectinomycin, which allowed for quantitation of surviving total oral streptococci and surviving S. mutans, respectively.
C16-RB was next evaluated for selectivity in mixed cultures containing S. mutans and non-cariogenic oral streptococci that compete for the same niche on the tooth surface. We utilized mixed biofilms of S. mutans transformed with spectinomycin resistance (strain JM11, Merritt, et al., 2005), plus S. oxalis, S. gordonii, S. mitis, S. sanguinis, and S. salivarius. The mixed cultures were grown 24 and then treated with RB or C16-RB as indicated, plus potassium gluconate to minimize killing of untargeted bacteria by reducing the superoxide-producing activity of the free C16-RB not bound to S. mutans. […]

BHK-21 fibroblasts = assay: Cytotoxicity, Promega CellTiterGlo assay; type: cell-based, hamster; settings: BHK cells
Experimental: Streptococcus oralis ATCC 10557, Streptococcus gordonii (Challis), Streptococcus sanguinis (NY101), Streptococcus mitis ATCC 903, Streptococcus salivarius ATCC 13419 and S. mutans wild-type UA140 and JM11 (spectinomycin-resistant) strains were grown in Todd-Hewitt (TH) broth 37° C. in an anaerobic atmosphere of 80% N2, 10% CO2, and 10% H2. BHK-21 (ATCC CRL-10) fibroblasts were propagated in DMEM with 10% FBS, 1 mM sodium pyruvate, 100 units/mL penicillin G, and 100 μg/mL streptomycin at 37° C. with 5% CO2. Cells were detached with 0.25% trypsin and subcultured as recommended by the supplier.
The effect of RB and C16-RB on human fibroblasts was ascertained by utilizing the Promega CellTiterGlo assay, as described by the manufacturer. Briefly, fibroblasts were grown to confluence, detached, and seeded to ˜5,000 cells per well in a 96-well opaque walled, clear bottom 96-well plate (Nunc International). For long-term dark toxicity, cells were allowed to attach to for 18 h before the culture medium was replaced with medium plus serially-diluted RB or C16-RB (200 μM to 390 nM) or medium alone. After 18-24 h, equal volume Cell Titer Glo reagent was added to each well and mixed. Luciferace activity was then quantified to measure cell viability (Varian Fluorometer in Biolumenescence mode). […] After exposure, cultures were disrupted with Cell Titer Glo and luciferase activity quantitated as above.

S. mutans UA140 biofilms = assay: Photodynamic antimicrobial assay against single-species biofilms; type: cell-based, Streptococcus mutans; settings: 5 μM, no light
Experimental: To evaluate C16-RB against monoculture biofilms, S. mutans UA140 was grown overnight in TH prior to inoculation for biofilm formation. For biofilms, 1:5000 dilution of overnight culture was made into TH with 1% sucrose in 2 mL centrifuge tubes (200 μL volume) and grown 24 h under anaerobic conditions. After incubation, biofilms were treated for 5 min with 5 or 25 μM C16-RB or 5 μM RB in 1×PBS, or PBS alone, followed by removal of supernatant and exposure to 5 min blue light (emission 400-550 nm, power 400 mW/cm^2) from an Astralis 7 (Ivoclar Vivodent, Austria) handheld LED commonly used as a dental curing light. The light source was suspended 4 cm from the tube bottom (even with the mouth of the tube). A duplicate set of samples were left covered to serve as dark controls. After treatment, biofilms were mechanically disrupted and plated to determine cfu/mL.
After synthesis, the basic photosensitization potential of C16-RB was assessed by challenging mature single-species S. mutans biofilms (grown 24 h) with C16-RB or unmodified RB, followed by blue emission from a dental curing light.

S. mutans [2] = assay: STAMP activity in formulations (buffer/salt dependence); type: cell-based, Streptococcus mutans
Source text: During the course of evaluating STAMPs, antimicrobial peptides (AMPs), and binding peptides for desired activity, it was discovered that certain formulations can attenuate or promote peptide activity, as compared to activity levels in a default buffer system (1×PBS). In some cases, 1×PBS may provide the best level of activity. Below are a number of formulations that alter, or may alter, peptide or STAMP activity. For complex buffer systems, assume the base solvent is water unless otherwise stated.
It was a surprising discovery that certain anti-S. mutans STAMPs required a salt in the formulation (e.g., PBS) for optimum activity. […] Suitable PBS formulations ranged from 0.5×PBS to about 2.5×PBS with an activity optimum at about 1×PBS. Similar results are believed to obtain for other anti-S. mutans STAMPS as well as a number of other STAMPs. In certain embodiments STAMP stability in solution was improved by inclusion of fluoride in mouthrinse.

P. aeruginosa [3] = assay: Microbial population shift assay, mixed planktonic culture; type: cell-based, Pseudomonas aeruginosa; settings: 10 μM peptide, 24 h, detection limit 200 cfu/mL
Experimental: (§1) Peptide (10 μM) or mock-treatment (1×PBS) was then added and samples were incubated at 37° C. for 24 h under anaerobic conditions (80% N2, 15% CO2, 5% H2). […] Plates were then incubated 37° C. under aerobic conditions (TH plates were incubated anaerobically) and colonies counted after 24 h to determine survivors. […] Gram stains and direct microscopic observation (from select isolated colonies) were undertaken to confirm species identity (data not shown). The detection limit of the assay was 200 cfu/mL.
(§2) We hypothesized that potential MH-STAMP dual-functionality could affect a particular set of bacteria within a mixed population, thereby promoting the outgrowth of non-targeted organisms and “shifting” the constituent makeup. To examine this possibility, defined mixed populations of planktonic cells were treated continuously and the make-up of the community examined after 24 h.

E. coli [4] = assay: as above; type: cell-based, Escherichia coli; settings: 10 μM peptide, 24 h, detection limit 200 cfu/mL
Experimental: as §1, §2

S. mutans [5] = assay: as above; type: cell-based, Streptococcus mutans; settings: 10 μM peptide, 24 h, detection limit 200 cfu/mL
Experimental: as §1, §2

S. epidermidis [6] = assay: as above; type: cell-based, Staphylococcus epidermidis; settings: 10 μM peptide, 24 h, detection limit 200 cfu/mL
Experimental: as §1, §2

S. mutans [7] = assay: Post-antibiotic effect assay, monoculture growth after 10 min treatment; type: cell-based, Streptococcus mutans; settings: peptide 10 min, then fresh medium
Experimental: (§3) The activity and selectivity of MH-STAMPs after a 10 min incubation was determined by growth retardation experiments against targeted and untargeted bacteria in monocultures, as described previously (Id.). Cells from overnight cultures were diluted to ˜5×10^6 cfu/mL in MH (or TH with 1% sucrose for S. mutans), normalized by OD600 0.05-0.1 and seeded to 96-well plates. Cultures were then grown under the appropriate conditions for 2 h (3 h for S. mutans) prior to the addition of peptides for 10 min. Plates were then centrifuged at 3000×g for 5 min, the supernatants discarded, fresh medium returned (MH or TH without sucrose for S. mutans), and incubation resumed. Bacterial growth after treatment was then monitored over time by OD600.
(§4) MH-STAMP antimicrobial kinetics was ascertained utilizing a variation of the classical post-antibiotic effect assay, which measures the ability of an agent to affect an organism's growth after a short exposure period. Monocultures of MH-STAMP-targeted and untargeted organisms were exposed to M8(KH)-20, M8(BL)-20, BL(KH)-20, or unmodified BD2.20, then allowed to recover. […] Furthermore, replacement of the targeting region with a non-binding peptide abolishes specific activity.

S. epidermidis [8] = assay: as above; type: cell-based, Staphylococcus epidermidis; settings: peptide 10 min, then fresh medium
Experimental: as §3, §4

P. aeruginosa [9] = assay: as above; type: cell-based, Pseudomonas aeruginosa; settings: peptide 10 min, then fresh medium
Experimental: as §3, §4

S. aureus = assay: as above; type: cell-based, Staphylococcus aureus; settings: peptide 10 min, then fresh medium
Experimental: as §3, §4

E. coli [10] = assay: as above; type: cell-based, Escherichia coli; settings: peptide 10 min, then fresh medium
Experimental: as §3, §4

Row | Compound | surviving P. aeruginosa cfu/mL (P. aeruginosa [3]) | surviving E. coli cfu/mL (E. coli [4]) | surviving S. mutans cfu/mL (S. mutans [5]) | surviving S. epidermidis cfu/mL (S. epidermidis [6]) | S. mutans growth (OD600) after treatment (S. mutans [7]) | further results
1 | O=C1OC2(c3cc(I)c(O)c(I)c3Oc3c2cc(I)c(O)c3I)c2c(Cl)c(Cl)c(Cl)c(Cl)c21 [RB, rose bengal] |  |  |  |  |  | ratio of surviving S. mutans:non-cariogenic streptococci cfu [1]: ~1; pIC50 (BHK-21 fibroblasts; 5 min dark): < 4.00; photo-associated (light-dependent) toxicity (BHK-21 fibroblasts; blue light exposure): light-dependent toxicity was observed; decrease in cfu/mL, dark controls (S. mutans UA140 biofilms): appreciable decreases in cfu/mL were not observed
2 | TFFRLFNRSFTQALGKGGGKNLRIIRKGIHIIKKY* (TFFRLFNRSFTQALGKGGGKNLRIIRKGIHIIKKY-NH2) [Peptide C16G2, anti-S. mutans STAMP] |  |  |  |  |  | activity optimum (PBS strength) (S. mutans [2]; PBS formulations 0.5×PBS to about 2.5×PBS): about 1 ×PBS; activity (S. mutans [2]; water-based salt-free buffers and nanoemulsions): substantially inactive
3 | CC[C@H](C)[C@H](NC(=O)[C@H](Cc1ccccc1)NC(=O)CCCCCCCNC(=O)[C@H](CCCCNC(=O)CNC(=O)CNC(=O)CNC(=O)[C@H](Cc1c[nH]cn1)NC(=O)[C@H](CCCCN)NC(=O)[C@H](CCCNC(=N)N)NC(=O)[C@H](Cc1c[nH]cn1)NC(=O)[C@H](CCCCN)NC(=O)[C@H](CCCNC(=N)N)NC(=O)[C@H](Cc1c[nH]cn1)NC(=O)[C@H](CCCCN)NC(=O)[C@H](CCCNC(=N)N)NC(=O)[C@H](Cc1c[nH]cn1)NC(=O)[C@H](CCCCN)NC(=O)[C@@H](N)CCCCN)NC(=O)CNC(=O)CNC(=O)CNC(=O)[C@H](C)NC(=O)[C@H](CCC(=O)O)NC(=O)[C@H](CC(N)=O)NC(=O)[C@H](C)NC(=O)[C@H](C)NC(=O)[C@H](CC(=O)O)NC(C)=O)C(=O)N[C@@H](CCCNC(=N)N)C(=O)N[C@@H](CCCCN)C(=O)N[C@@H](Cc1ccccc1)C(=O)N[C@@H](CC(C)C)C(=O)N[C@@H](CCCCN)C(=O)N[C@@H](CCCCN)C(=O)N[C@@H](Cc1c[nH]c2ccccc12)C(=O)N[C@@H](CC(C)C)C(=O)N[C@@H](CC(C)C)C(N)=O [BL(KH)-20] (I: Ac-DAANEAGGGK[Aoc]FIRKFLKKWLL-NH2 / II: H-KKHRKHRKHRKHGGG; amide I:10-II:C) | not observed | unchanged numbers | higher than input cfu/mL | unchanged numbers | not altered | 
4 | CC[C@H](C)[C@H](NC(=O)[C@@H](N)Cc1ccccc1)C(=O)N[C@@H](CCCNC(=N)N)C(=O)N[C@@H](CCCCN)C(=O)N[C@@H](Cc1ccccc1)C(=O)N[C@@H](CC(C)C)C(=O)N[C@@H](CCCCN)C(=O)N[C@@H](CCCCN)C(=O)N[C@@H](Cc1c[nH]c2ccccc12)C(=O)N[C@@H](CC(C)C)C(=O)N[C@@H](CC(C)C)C(N)=O [BD2.20] (H-FIRKFLKKWLL-NH2; N-terminus assumed) | significant loss of recoverable cfu/mL | significant loss of recoverable cfu/mL | significant loss of recoverable cfu/mL | significant loss of recoverable cfu/mL | robust antimicrobial activity | S. epidermidis growth (OD600) after treatment (S. epidermidis [8]): inhibited; P. aeruginosa growth (OD600) after treatment (P. aeruginosa [9]): robust antimicrobial activity; S. aureus growth (OD600) after treatment (S. aureus): inhibited; E. coli growth (OD600) after treatment (E. coli [10]): inhibited
